According to ChEMBL document CHEMBL6121059, “Small Molecule Modulators of AMP-Activated Protein Kinase (AMPK) Activity and Their Potential in Cancer Therapy” (J Med Chem, 2025):
Blank lines part the entries; values can stand above or below the compound they belong to.

Assays:
[1] = biological target: 5'-AMP-activated protein kinase catalytic subunit alpha-1 (Homo sapiens, UniProt Q13131); test: Inhibition of AMPKalpha1 (unknown origin)
[2] = biological target: Leucine-rich repeat serine/threonine-protein kinase 2 (Homo sapiens) (UniProt Q5S007); test: Activation of LRRK2 (unknown origin) at 10 uM relative to control
Sequence of Leucine-rich repeat serine/threonine-protein kinase 2 (Homo sapiens) (Q5S007 whole entry): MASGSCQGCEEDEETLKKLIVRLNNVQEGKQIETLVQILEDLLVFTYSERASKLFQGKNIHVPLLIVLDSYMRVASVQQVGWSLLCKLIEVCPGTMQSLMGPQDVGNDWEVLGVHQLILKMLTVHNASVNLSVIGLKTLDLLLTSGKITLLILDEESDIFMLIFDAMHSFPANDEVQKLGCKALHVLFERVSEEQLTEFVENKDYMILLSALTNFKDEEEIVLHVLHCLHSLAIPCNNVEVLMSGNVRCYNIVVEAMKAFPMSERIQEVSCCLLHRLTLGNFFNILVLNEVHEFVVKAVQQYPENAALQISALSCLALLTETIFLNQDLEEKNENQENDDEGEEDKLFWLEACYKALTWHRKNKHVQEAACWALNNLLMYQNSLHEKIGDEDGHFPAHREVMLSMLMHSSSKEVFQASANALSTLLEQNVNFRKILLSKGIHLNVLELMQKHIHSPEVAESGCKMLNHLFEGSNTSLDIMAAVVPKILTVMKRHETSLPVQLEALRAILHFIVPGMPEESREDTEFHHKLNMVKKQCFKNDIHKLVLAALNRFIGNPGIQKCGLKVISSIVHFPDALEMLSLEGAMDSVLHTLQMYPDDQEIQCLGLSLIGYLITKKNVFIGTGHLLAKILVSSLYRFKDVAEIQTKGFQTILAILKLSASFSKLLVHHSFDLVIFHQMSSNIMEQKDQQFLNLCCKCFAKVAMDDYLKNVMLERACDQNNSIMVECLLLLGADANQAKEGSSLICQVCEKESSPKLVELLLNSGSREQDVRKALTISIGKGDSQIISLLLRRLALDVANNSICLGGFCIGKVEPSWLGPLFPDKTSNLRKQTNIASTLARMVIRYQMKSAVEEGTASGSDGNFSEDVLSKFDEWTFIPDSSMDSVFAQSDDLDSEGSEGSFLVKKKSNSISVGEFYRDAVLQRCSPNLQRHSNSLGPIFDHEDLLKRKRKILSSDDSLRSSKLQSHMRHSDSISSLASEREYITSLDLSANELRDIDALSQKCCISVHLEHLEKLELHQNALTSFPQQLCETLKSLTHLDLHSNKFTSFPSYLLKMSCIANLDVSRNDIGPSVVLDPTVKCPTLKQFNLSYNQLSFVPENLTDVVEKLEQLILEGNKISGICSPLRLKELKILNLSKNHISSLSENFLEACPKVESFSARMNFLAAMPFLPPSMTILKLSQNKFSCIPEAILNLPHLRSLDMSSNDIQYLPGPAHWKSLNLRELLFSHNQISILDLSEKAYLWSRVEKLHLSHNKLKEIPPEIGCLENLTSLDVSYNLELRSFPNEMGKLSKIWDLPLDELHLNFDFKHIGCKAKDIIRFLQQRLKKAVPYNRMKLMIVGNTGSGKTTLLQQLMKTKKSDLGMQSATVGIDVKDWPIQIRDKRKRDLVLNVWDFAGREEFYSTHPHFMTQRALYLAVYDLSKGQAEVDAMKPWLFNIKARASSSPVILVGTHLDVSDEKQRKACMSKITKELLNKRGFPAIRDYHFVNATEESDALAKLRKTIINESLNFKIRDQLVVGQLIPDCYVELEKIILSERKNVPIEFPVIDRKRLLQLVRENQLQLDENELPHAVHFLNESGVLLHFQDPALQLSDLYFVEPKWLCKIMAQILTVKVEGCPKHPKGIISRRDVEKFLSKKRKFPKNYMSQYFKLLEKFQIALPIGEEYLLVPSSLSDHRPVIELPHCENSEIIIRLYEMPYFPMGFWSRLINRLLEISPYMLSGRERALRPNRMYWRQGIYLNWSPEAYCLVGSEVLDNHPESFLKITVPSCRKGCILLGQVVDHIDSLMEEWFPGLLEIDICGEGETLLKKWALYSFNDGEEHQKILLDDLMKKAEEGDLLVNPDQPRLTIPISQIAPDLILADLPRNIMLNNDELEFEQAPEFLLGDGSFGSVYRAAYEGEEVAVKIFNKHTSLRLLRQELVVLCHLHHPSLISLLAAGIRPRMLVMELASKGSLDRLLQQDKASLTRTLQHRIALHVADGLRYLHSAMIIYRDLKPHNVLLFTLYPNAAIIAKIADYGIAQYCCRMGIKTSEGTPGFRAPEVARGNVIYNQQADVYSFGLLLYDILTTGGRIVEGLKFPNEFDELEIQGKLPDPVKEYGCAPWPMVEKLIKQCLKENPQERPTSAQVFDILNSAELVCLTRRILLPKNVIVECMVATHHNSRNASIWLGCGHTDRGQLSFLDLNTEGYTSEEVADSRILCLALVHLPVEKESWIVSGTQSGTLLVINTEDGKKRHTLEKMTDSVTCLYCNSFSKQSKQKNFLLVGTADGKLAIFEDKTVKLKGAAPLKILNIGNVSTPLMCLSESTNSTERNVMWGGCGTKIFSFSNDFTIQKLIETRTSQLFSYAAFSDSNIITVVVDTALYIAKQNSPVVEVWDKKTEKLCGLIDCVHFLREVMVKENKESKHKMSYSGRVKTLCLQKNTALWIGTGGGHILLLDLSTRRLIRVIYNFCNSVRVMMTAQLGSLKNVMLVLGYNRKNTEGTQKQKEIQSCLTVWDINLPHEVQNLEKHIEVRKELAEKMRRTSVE

[3] = biological target: Serine/threonine-protein kinase N1 (Homo sapiens) (UniProt Q16512); test: Activation of PRK1 (unknown origin) at 10 uM relative to control
Sequence of Serine/threonine-protein kinase N1 (Homo sapiens) (Q16512 2-942 limits assumed): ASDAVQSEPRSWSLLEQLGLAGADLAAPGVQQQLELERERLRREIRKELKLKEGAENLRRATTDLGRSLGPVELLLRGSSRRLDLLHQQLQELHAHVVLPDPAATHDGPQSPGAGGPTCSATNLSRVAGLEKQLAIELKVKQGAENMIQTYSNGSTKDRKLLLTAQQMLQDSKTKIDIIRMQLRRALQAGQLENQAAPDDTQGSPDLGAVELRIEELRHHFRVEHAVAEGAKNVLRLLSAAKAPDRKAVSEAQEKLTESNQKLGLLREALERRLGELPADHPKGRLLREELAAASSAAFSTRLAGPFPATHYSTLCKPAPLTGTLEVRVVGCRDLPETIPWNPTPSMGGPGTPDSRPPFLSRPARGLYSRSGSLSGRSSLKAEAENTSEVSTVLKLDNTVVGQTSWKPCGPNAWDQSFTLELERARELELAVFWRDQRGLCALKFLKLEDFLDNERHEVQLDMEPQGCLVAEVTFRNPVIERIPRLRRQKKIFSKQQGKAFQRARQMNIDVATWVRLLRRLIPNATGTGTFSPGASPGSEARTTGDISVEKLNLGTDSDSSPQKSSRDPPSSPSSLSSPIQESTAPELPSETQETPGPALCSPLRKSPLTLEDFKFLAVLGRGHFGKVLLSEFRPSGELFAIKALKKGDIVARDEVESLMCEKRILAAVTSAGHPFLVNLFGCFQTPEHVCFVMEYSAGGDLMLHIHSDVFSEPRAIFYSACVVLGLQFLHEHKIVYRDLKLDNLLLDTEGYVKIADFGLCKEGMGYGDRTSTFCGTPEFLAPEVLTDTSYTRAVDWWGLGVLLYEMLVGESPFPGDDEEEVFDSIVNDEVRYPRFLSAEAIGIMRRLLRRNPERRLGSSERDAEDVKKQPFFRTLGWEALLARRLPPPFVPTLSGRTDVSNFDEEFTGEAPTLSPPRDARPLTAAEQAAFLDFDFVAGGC

[4] = organism: Homo sapiens; test: Inhibition of SRC (unknown origin) at 10 uM relative to control
[5] = biological target: T1, TGF-beta receptor type-1 (Homo sapiens) (UniProt P36897); test: Inhibition of ALK5 (unknown origin) at 10 uM relative to control
T1 sequence (whole entry): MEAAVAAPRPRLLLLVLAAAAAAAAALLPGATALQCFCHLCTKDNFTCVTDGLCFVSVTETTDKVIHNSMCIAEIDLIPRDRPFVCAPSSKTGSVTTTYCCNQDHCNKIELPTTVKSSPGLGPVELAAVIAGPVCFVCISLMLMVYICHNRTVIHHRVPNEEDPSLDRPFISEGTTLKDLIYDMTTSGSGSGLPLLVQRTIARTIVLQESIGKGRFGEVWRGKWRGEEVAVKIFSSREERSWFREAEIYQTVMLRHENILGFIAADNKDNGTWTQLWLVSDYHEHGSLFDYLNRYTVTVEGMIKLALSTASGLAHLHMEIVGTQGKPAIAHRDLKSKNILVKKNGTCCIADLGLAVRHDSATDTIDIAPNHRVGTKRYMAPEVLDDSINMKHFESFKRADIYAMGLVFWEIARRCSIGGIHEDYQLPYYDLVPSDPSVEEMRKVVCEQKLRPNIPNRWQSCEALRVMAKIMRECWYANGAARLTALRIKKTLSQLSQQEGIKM

[6] = biological target: Serine/threonine-protein kinase PAK 1 (Homo sapiens) (UniProt Q13153); test: Activation of PAK1 (unknown origin) at 10 uM relative to control
Sequence of Serine/threonine-protein kinase PAK 1 (Homo sapiens) (Q13153 whole entry, looked up, the tested form may be a part): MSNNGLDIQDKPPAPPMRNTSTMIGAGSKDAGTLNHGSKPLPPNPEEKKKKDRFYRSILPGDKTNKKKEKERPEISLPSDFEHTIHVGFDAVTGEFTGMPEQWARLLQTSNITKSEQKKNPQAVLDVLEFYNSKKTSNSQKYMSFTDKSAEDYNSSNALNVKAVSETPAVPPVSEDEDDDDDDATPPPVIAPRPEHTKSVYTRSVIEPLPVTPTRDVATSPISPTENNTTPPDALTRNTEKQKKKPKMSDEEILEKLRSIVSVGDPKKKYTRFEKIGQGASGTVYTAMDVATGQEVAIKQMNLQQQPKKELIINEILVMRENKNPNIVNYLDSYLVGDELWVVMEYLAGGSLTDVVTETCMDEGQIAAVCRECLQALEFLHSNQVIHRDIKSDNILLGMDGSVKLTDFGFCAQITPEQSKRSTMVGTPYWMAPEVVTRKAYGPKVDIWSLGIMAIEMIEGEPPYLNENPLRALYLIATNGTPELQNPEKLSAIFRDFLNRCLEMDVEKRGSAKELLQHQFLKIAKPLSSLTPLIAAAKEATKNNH

[7] = biological target: Epithelial discoidin domain-containing receptor 1 (Homo sapiens) (UniProt Q08345); test: Inhibition of DDR1 (unknown origin) at 10 uM relative to control
[8] = test system: VCaP; test: Antiproliferative activity against human VCaP cells assessed as reduction in cell viability incubated for 3 days by cell-titer glo assay; assay type: functional, cell-based; details: 72 h
[9] = test system: COLO 320; test: Inhibition of cellular AMPK in human COLO 320 cells assessed as reduction in pACC1 levels in cell lysates by HTRF assay
[10] = test system: IMR-32; test: Inhibition of cellular AMPK in human IMR-32 cells assessed as reduction in pACC1 levels in cell lysates by HTRF assay
[11] = test system: LNCaP; test: Inhibition of cellular AMPK in human LNCaP cells assessed as reduction in pACC1 levels in cell lysates by HTRF assay
[12] = Inhibition of full length GST-tagged human AMPKalpha2/beta1/gamma1 using HMRSAMSFAEPG biotinylated peptide as substrate in presence of 10 uM ATP by TR-FRET assay
[13] = Inhibition of full length GST-tagged human AMPKalpha2/beta1/gamma1 using HMRSAMSFAEPG biotinylated peptide as substrate in presence of 2 mM ATP by TR-FRET assay
[14] = Inhibition of AMPK (unknown origin); parameters: species or system Homo sapiens
[15] = Binding affinity to AMPK (unknown origin) assessed as inhibition constant; parameters: species or system Homo sapiens

Sequence of 5'-AMP-activated protein kinase catalytic subunit alpha-1 (Q13131 whole entry): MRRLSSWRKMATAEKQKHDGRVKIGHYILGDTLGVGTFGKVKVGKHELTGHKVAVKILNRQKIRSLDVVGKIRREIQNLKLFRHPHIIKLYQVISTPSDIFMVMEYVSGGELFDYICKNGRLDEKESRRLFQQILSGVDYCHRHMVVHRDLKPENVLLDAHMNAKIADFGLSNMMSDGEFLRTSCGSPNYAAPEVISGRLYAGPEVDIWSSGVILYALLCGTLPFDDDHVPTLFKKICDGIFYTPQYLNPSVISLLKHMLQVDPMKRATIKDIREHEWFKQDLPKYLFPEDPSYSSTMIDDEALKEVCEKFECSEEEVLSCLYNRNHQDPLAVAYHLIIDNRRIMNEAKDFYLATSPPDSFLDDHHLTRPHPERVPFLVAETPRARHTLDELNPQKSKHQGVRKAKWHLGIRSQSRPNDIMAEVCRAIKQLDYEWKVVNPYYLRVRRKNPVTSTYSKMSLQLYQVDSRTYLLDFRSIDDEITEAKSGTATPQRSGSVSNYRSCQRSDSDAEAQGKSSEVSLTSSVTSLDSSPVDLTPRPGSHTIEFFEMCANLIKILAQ

SMILES: CNC(=O)c1ccccc1Oc1nc(Nc2cc(OC)c(OC)c(OC)c2)ncc1Br
IC50 [1]: 400 nM

SMILES: O=C(O)Cc1csc(Nc2ccc(C(F)(F)F)cc2)n1
activation [2]: 30%
activation [3]: 30%
inhibition [4]: > 50%
inhibition [5]: > 50%
activation [6]: 30%
inhibition [7]: > 50%

SMILES: CCc1ccccc1C(=O)Nc1n[nH]c2c(C)c(F)c(C3C(C#N)=C(C)N(C)C(C)=C3C#N)cc12 [BAY-3827]
IC50 [8]: ~100 nM
IC50 [9]: ~400 nM
IC50 [10]: ~150 nM
IC50 [11]: ~100 nM
IC50 [12]: 1.4 nM
IC50 [13]: 15 nM

Results, then the compound that gave them:

IC50 [14]: 2380 nM
Ki [15]: 109 nM
SMILES: c1cc(-c2cnn3cc(-c4ccc(OCCN5CCCCC5)cc4)cnc23)ccn1 [DORSOMORPHIN]

IC50 [14]: 40 nM
SMILES: CCN(CC)CCNC(=O)c1c(C)[nH]c(/C=C2\C(=O)Nc3ccc(F)cc32)c1C [SUNITINIB]
